Laboratory results published in patent publication US20260226073A1 (AURIGENE ONCOLOGY LIMITED, priority 2023, published 2026).

These molecules were tested against T1, human recombinant CBL-b (human Biotin CBL-b recombinant protein a.a. 39-426) (Homo sapiens, UniProt Q13191) (assay: Biochemical assay for CBL-b inhibition (ligand displacement TR-FRET)). Details: 50 nM CBL-b, 0.3 μM Bodipy FL-Probe, read-out: IC50 (CBL-b inhibition, group).
T1 construct: human Biotin CBL-b recombinant protein a.a; 39-426; Biotin (biotinylated); made in house
Assay type: binding
Procedure: The inhibitory activity of the test compounds was assessed by Ligand displacement TR-FRET assay. The human recombinant CBL-b (human Biotin CBL-b recombinant protein a.a. 39-426; synthesised in-house) was diluted in enzyme assay buffer (20 mM HEPES, 150 mM NaCl, 0.01% Triton X, 0.01% BSA, 0.5 mM TCEP) in a 10 μl volume and plated in 384-well plates (Cat #781075, Greiner) to a final concentration of 50 nM. The enzyme/compound mixture was incubated at RT for 60 min. The Bodipy FL-Probe described in WO 2020/210508 (synthesized in-house) diluted in enzyme assay buffer was added to the plate and incubated for 60 min RT, the final probe concentration was 0.3 μM. After 60 min incubation, 10 μl of detection mix (Terbium Streptavidin, (Cat #PV3576, Invitrogen) diluted in 1× Lance buffer) was added and incubated for 60 min at room temperature. Time-resolved fluorescence (excitation, 320 nm; emission donor, 615 nm; emission acceptor, 665 nm) was monitored by using 2030 multilabel reader Victor5 (PerkinElmer). The IC50 (concentration for half maximal inhibition) and % maximum inhibition of the compounds were estimated by fitting the dose response data to a sigmoidal curve fitting equation using Graph pad Prism software V. 8.

T1 sequence (Q13191 39-426): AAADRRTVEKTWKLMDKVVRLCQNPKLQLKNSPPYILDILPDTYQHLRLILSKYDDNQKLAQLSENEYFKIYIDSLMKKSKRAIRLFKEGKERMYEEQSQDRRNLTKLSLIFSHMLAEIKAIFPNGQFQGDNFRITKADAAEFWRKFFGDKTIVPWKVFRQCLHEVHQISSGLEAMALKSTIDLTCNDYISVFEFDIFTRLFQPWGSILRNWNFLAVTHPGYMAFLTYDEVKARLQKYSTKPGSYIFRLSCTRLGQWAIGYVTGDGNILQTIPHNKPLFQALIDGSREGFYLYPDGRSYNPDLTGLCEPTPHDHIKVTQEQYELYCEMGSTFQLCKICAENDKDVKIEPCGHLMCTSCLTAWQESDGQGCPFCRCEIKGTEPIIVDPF

`C[C@@H]1CN(Cc2cc(N3Cc4ccc(C5(Cc6nncn6C)COC5)cc4C3=O)nc(C(F)(F)F)c2)CCN1` [Compound 96, (R)-6-(3-((4-Methyl-4H-1,2,4-triazol-3-yl)methyl)oxetan-3-yl)-2-(4-((3-methylpiperazin-1-yl)methyl)-6-(trifluoromethyl)pyridin-2-yl)isoindolin-1-one] and `C[C@@H]1CN(Cc2cc(N3Cc4ccc(C5(Cc6nncn6C)COC5)cc4C3=O)nc(C(F)(F)F)c2)CCN1C` [Compound 97, (R)-2-(4-((3,4-Dimethylpiperazin-1-yl)methyl)-6-(trifluoromethyl)pyridin-2-yl)-6-(3-((4-methyl-4H-1,2,4-triazol-3-yl)methyl)oxetan-3-yl)isoindolin-1-one] fall in the same range of IC50: 300 to 5000 nM for the first, 300 to 5000 nM for the second.

`C[C@@H]1CN(Cc2cc(N3Cc4ccc(C5(Cc6nncn6C)COC5)cc4C3=O)nc(C(F)(F)F)c2)C[C@H](C)N1` [Compound 98, 2-(4-(((3R,5S)-3,5-Dimethylpiperazin-1-yl)methyl)-6-(trifluoro-methyl)pyridin-2-yl)-6-(3-((4-methyl-4H-1,2,4-triazol-3-yl)methyl)oxetan-3-yl)-isoindolin-1-one] and `C[C@H]1CCCN(Cc2cc(N3Cc4ccc(C5(Cc6nncn6C)COC5)cc4C3=O)nc(C(F)(F)F)c2)[C@H]1C` [Compound 138] fall in the same range of IC50: 300 to 5000 nM for the first, 300 to 5000 nM for the second.

First: Cn1cnnc1CC1(c2ccc3c(c2)C(=O)N(c2cc(CNCCOCCOCCOCCN)cc(Cl)n2)C3)COC1 [Compound 99, 2-(4-(13-Amino-5,8,11-trioxa-2-azatridecyl)-6-chloropyridin-2-yl)-6-(3-((4-methyl-4H-1,2,4-triazol-3-yl)methyl)oxetan-3-yl)isoindolin-1-one]
Second: Cn1cnnc1CC1(c2ccc3c(c2)C(=O)N(c2cc(CNCC4(F)CC4)cc(Cl)n2)C3)COC1 [Compound 130, 2-(6-Chloro-4-((((1-fluorocyclopropyl)methyl)amino)methyl)-pyridin-2-yl)-6-(3-((4-methyl-4H-1,2,4-triazol-3-yl)methyl)oxetan-3-yl)isoindolin-1-one]
The IC50 of the first is higher: 300 to 5000 nM for the first, 80 to 300 nM for the second. The second is the more potent here.

First: CC(C)NCC(O)c1cc(N2Cc3ccc(C4(Cc5nncn5C)COC4)cc3C2=O)cc(C(F)(F)F)c1 (stereo not shown) [Compound 100, 2-(3-(1-Hydroxy-2-(isopropylamino)ethyl)-5-(trifluoromethyl)-phenyl)-6-(3-((4-methyl-4H-1,2,4-triazol-3-yl)methyl)oxetan-3-yl)isoindolin-1-one]
Second: Cn1cnnc1CC1(c2ccc3c(c2)C(=O)N(c2cc(CNCC4(C(F)(F)F)CC4)cc(Cl)n2)C3)COC1 [Compound 204]
The IC50 of the first is higher: 300 to 5000 nM for the first, 80 to 300 nM for the second.

Compared with `C[C@H]1CCCN(Cc2cc(Cl)nc(N3Cc4ccc(-c5c(-c6nncn6C)cnn5C)cc4C3=O)c2)C1` [Compound 114, (S)-2-(6-Chloro-4-((3-methylpiperidin-1-yl)methyl)pyridin-2-yl)-6-(1-methyl-4-(4-methyl-4H-1,2,4-triazol-3-yl)-1H-pyrazol-5-yl)isoindolin-1-one], `C[C@H]1CCCN(Cc2cc(Cl)nc(N3Cc4ccc(-c5ccccc5-c5nncn5C)cc4C3=O)c2)C1` [Compound 118, (S)-2-(6-Chloro-4-((3-methylpiperidin-1-yl)methyl)pyridin-2-yl)-6-(2-(4-methyl-4H-1,2,4-triazol-3-yl)phenyl)isoindolin-1-one] is lower in IC50: 300 to 5000 nM for the first, under 80 nM for the second.

Compared with `Cn1cc2c(n1)CCCN2Cc1cc(N2Cc3ccc(C4(Cc5nncn5C)COC4)cc3C2=O)nc(C(F)(F)F)c1` [Compound 128, 2-(4-((2-Methyl-2,5,6,7-tetrahydro-4H-pyrazolo[4,3-b]pyridin-4-yl)methyl)-6-(trifluoromethyl)pyridin-2-yl)-6-(3-((4-methyl-4H-1,2,4-triazol-3-yl)methyl)oxetan-3-yl)isoindolin-1-one], `Cn1cnnc1CC1(c2ccc3c(c2)C(=O)N(c2cc(CN4CCC(C)(F)C4)cc(Cl)n2)C3)COC1` (stereo not shown) [Compound 184] is lower in IC50: 300 to 5000 nM for the first, 80 to 300 nM for the second.

Compared with `Cc1nc(CNCc2cc(Cl)nc(N3Cc4ccc(C5(Cc6nncn6C)COC5)cc4C3=O)c2)cs1` [Compound 129, 2-(6-Chloro-4-((((2-methylthiazol-4-yl)methyl)amino)methyl)-pyridin-2-yl)-6-(3-((4-methyl-4H-1,2,4-triazol-3-yl)methyl)oxetan-3-yl)isoindolin-1-one], `Cc1cccc(CNCc2cc(Cl)nc(N3Cc4ccc(C5(Cc6nncn6C)COC5)cc4C3=O)c2)n1` [Compound 229] is higher in IC50: 80 to 300 nM for the first, 300 to 5000 nM for the second.

First: Cc1cc(CO)cc(N2Cc3ccc(-c4ccc(F)cc4-c4nncn4C)cc3C2=O)n1 [Compound 136, 6-(4-Fluoro-2-(4-methyl-4H-1,2,4-triazol-3-yl)phenyl)-2-(4-(hydroxymethyl)-6-methylpyridin-2-yl)isoindolin-1-one]
Second: COC1(CNCc2cc(C)nc(N3Cc4ccc(-c5ccc(F)cc5-c5nncn5C)cc4C3=O)c2)CC1 [Compound 137, 6-(4-Fluoro-2-(4-methyl-4H-1,2,4-triazol-3-yl)phenyl)-2-(4-((((1-methoxycyclopropyl)methyl)amino)methyl)-6-methylpyridin-2-yl)isoindolin-1-one]
The IC50 of the first is higher: 300 to 5000 nM for the first, 80 to 300 nM for the second. The second is the more potent here.

`C[C@H]1CCCN(Cc2ccnc(N3Cc4ccc(C5(Cc6nncn6C)COC5)cc4C3=O)c2)C1` [Compound 149] and `Cn1cnnc1CC1(c2ccc3c(c2)C(=O)N(c2cc(CN4CCCC(O)CC4)cc(Cl)n2)C3)COC1` (stereo not shown) [Compound 174] fall in the same range of IC50: 80 to 300 nM for the first, 80 to 300 nM for the second.

Compared with `CC(Cc1nncn1C)c1cnc2c(c1)C(=O)N(c1cc(CN3CCC[C@H](C)C3)cc(Cl)n1)C2` (stereo partly shown) [Compound 150], `CC(C)C(Cc1nncn1C)c1ccc2c(c1)C(=O)N(c1cc(CN3CCC[C@H](C)C3)cc(Cl)n1)C2` (stereo partly shown) [Compound 165] is higher in IC50: 80 to 300 nM for the first, 300 to 5000 nM for the second.

`Cn1cnnc1CC1(c2ccc3c(c2)C(=O)N(c2cc(CNCC4CCCCC4)cc(Cl)n2)C3)COC1` [Compound 153] and `Cn1cnnc1CC1(c2ccc3c(c2)C(=O)N(c2cc(CNCC4COC4)cc(Cl)n2)C3)COC1` [Compound 183] fall in the same range of IC50: 80 to 300 nM for the first, 80 to 300 nM for the second.

First: C[C@H]1CCCN(Cc2cc(Cl)nc(N3Cc4ccc(CCc5nncn5C)cc4C3=O)c2)C1 [Compound 154]
Second: C[C@H]1CCCN(Cc2cc(Cl)nc(N3Cc4ccc(C(Cc5nncn5C)C5CCC5)cc4C3=O)c2)C1 (stereo partly shown) [Compound 173]
The IC50 of the first is lower: 80 to 300 nM for the first, 300 to 5000 nM for the second. The first is the more potent here.

`C[C@@H]1CN(Cc2cc(Cl)nc(N3Cc4ccc(C5(Cc6nncn6C)COC5)cc4C3=O)c2)C[C@@H](C)O1` [Compound 177] and `C[C@@H]1CN(Cc2cc(Cl)nc(N3Cc4ccc(C5(Cc6nncn6C)COC5)cc4C3=O)c2)C[C@H](C)O1` [Compound 191] fall in the same range of IC50: 300 to 5000 nM for the first, 300 to 5000 nM for the second.

`Cc1nc(CNCC2CC2)cc(N2Cc3ccc(C4(Cc5nncn5C)COC4)cc3C2=O)n1` [Compound 186] and `CC1CCC(CNCc2cc(Cl)nc(N3Cc4ccc(C5(Cc6nncn6C)COC5)cc4C3=O)c2)O1` (stereo not shown) [Compound 250] fall in the same range of IC50: 80 to 300 nM for the first, 80 to 300 nM for the second.

`Cn1cnnc1CC1(c2ccc3c(c2)C(=O)N(c2cc(CN4CCC5OCCC54)cc(Cl)n2)C3)COC1` (stereo not shown) [Compound 192] and `CC1CCCN1Cc1cc(Cl)nc(N2Cc3ccc(C4(Cc5nncn5C)COC4)cc3C2=O)c1` (stereo not shown) [Compound 200] fall in the same range of IC50: 300 to 5000 nM for the first, 300 to 5000 nM for the second.

First: Cn1cnnc1CC1(c2ccc3c(c2)C(=O)N(c2cc(CNCc4nccs4)cc(Cl)n2)C3)COC1 [Compound 194]
Second: Cn1cnnc1CC1(c2ccc3c(c2)C(=O)N(c2cc(CNCc4ncco4)cc(Cl)n2)C3)COC1 [Compound 208]
The IC50 of the first is lower: 80 to 300 nM for the first, 300 to 5000 nM for the second.

`Cn1cnnc1CC1(c2ccc3c(c2)C(=O)N(c2cc(CNCc4ccccn4)cc(Cl)n2)C3)COC1` [Compound 203] and `Cn1cnnc1CC1(c2ccc3c(c2)C(=O)N(c2cc(CNc4ccccn4)cc(Cl)n2)C3)COC1` [Compound 238] fall in the same range of IC50: 80 to 300 nM for the first, 80 to 300 nM for the second.

`Cn1cc(CNCc2cc(Cl)nc(N3Cc4ccc(C5(Cc6nncn6C)COC5)cc4C3=O)c2)cn1` [Compound 211] and `Cn1ccc(CNCc2cc(Cl)nc(N3Cc4ccc(C5(Cc6nncn6C)COC5)cc4C3=O)c2)n1` [Compound 212] fall in the same range of IC50: 300 to 5000 nM for the first, 300 to 5000 nM for the second.

First: Cc1ccc(CNCc2cc(Cl)nc(N3Cc4ccc(C5(Cc6nncn6C)COC5)cc4C3=O)c2)o1 [Compound 226]
Second: Cc1ccnc(CNCc2cc(Cl)nc(N3Cc4ccc(C5(Cc6nncn6C)COC5)cc4C3=O)c2)c1 [Compound 236]
The IC50 of the first is lower: 80 to 300 nM for the first, 300 to 5000 nM for the second.

First: Cn1cnnc1CC1(c2ccc3c(c2)C(=O)N(c2cc(CNC(C)(C)C4CC4)cc(Cl)n2)C3)COC1 [Compound 228]
Second: Cn1cnnc1CC1(c2ccc3c(c2)C(=O)N(c2cc(CNC45CC(C4)C5)cc(Cl)n2)C3)COC1 [Compound 235]
The IC50 of the first is higher: 300 to 5000 nM for the first, 80 to 300 nM for the second. The second is the more potent here.

First: Cn1cnnc1CC1(c2ccc3c(c2)C(=O)N(c2cc(CNCC4(C#N)CCC4)cc(Cl)n2)C3)COC1 [Compound 243]
Second: CC1CCNC(c2cc(Cl)nc(N3Cc4ccc(C5(Cc6nncn6C)COC5)cc4C3=O)c2)C1 (stereo not shown) [Compound 249]
The IC50 of the first is lower: 80 to 300 nM for the first, 300 to 5000 nM for the second.

`CCCC(Cc1nncn1C)c1ccc2c(c1)C(=O)N(c1cc(CNCC3CC3)cc(Cl)n1)C2` (stereo not shown) [Compound 252] and `COc1cc(CNCC2CCC2)cc(N2Cc3ccc(C(C)Cc4nncn4C)cc3C2=O)n1` (stereo not shown) [Compound 254] fall in the same range of IC50: 80 to 300 nM for the first, 80 to 300 nM for the second.

First: Cc1cc(CNCC2CC2)cc(N2Cc3ccc(-c4ccc(F)c(F)c4-c4nncn4C)cc3C2=O)n1 [Compound 257]
Second: Cc1cc(CN2CCC3(CCC3)C2)cc(N2Cc3ccc(-c4ccc(F)cc4-c4nncn4C)cc3C2=O)n1 [Compound 258]
The IC50 of the first is higher: 300 to 5000 nM for the first, under 80 nM for the second.
